Toxic doses and inconclusive results are not listed. Rule for the calls: active = survival T/C of 150% or more; inactive = T/C below 125% in these data.
Test system: CD2F1 mice, L1210 leukemia ip, survival T/C
Test: NCI In Vivo Anticancer Drug Screen. Data for tumor model L1210 Leukemia (intraperitoneal) in CD2F1 (CDF1) mice
Settings: higher = longer survival
How it was run: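 Each value reflects a quotient of treated over vehicle control outcomes in mice with a transplanted tumor.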

[1] = endpoint: mean survival time, dose: 25.0 mg/kg/injection, schedule: Q01DX009 (ip), vehicle: Klucel (hydroxypropylcellulose) (HPC)
[2] = endpoint: mean survival time, dose: 50.0 mg/kg/injection, schedule: Q01DX009 (ip), vehicle: Klucel (hydroxypropylcellulose) (HPC)
[3] = endpoint: mean survival time, dose: 100.0 mg/kg/injection, schedule: Q01DX009 (ip), vehicle: Klucel (hydroxypropylcellulose) (HPC)
[4] = endpoint: mean survival time, dose: 100.0 mg/kg/injection, schedule: Q04DX003 (ip), vehicle: saline with Tween-80
[5] = endpoint: mean survival time, dose: 200.0 mg/kg/injection, schedule: Q04DX003 (ip), vehicle: saline with Tween-80
[6] = endpoint: mean survival time, dose: 400.0 mg/kg/injection, schedule: Q04DX003 (ip), vehicle: saline with Tween-80
[7] = endpoint: mean survival time, dose: 100.0 mg/kg/injection, schedule: Q04DX002 (ip), vehicle: saline with Tween-80
[8] = endpoint: mean survival time, dose: 200.0 mg/kg/injection, schedule: Q04DX002 (ip), vehicle: saline with Tween-80
[9] = endpoint: mean survival time, dose: 400.0 mg/kg/injection, schedule: Q04DX002 (ip), vehicle: saline with Tween-80
[10] = endpoint: mean survival time, dose: 50.0 mg/kg/injection, schedule: Q01DX009 (ip), vehicle: saline
[11] = endpoint: mean survival time, dose: 100.0 mg/kg/injection, schedule: Q01DX009 (ip), vehicle: saline
[12] = endpoint: mean survival time, dose: 100.0 mg/kg/injection, schedule: Q01DX009 (ip), vehicle: saline with Tween-80
[13] = endpoint: mean survival time, dose: 200.0 mg/kg/injection, schedule: Q01DX009 (ip), vehicle: saline with Tween-80
[14] = endpoint: mean survival time, dose: 400.0 mg/kg/injection, schedule: Q01DX009 (ip), vehicle: saline with Tween-80

Measured: T/C

NC(=S)N/N=C1\c2cc(Cl)ccc2-c2c1cc(Cl)cc2[N+](=O)[O-]
inactive: endpoint: mean survival time, dose: 50.0 mg/kg/injection, schedule: Q01DX001 (ip), vehicle: carboxymethylcellulose (CMC) 102 % of control | endpoint: mean survival time, dose: 100.0 mg/kg/injection, schedule: Q01DX001 (ip), vehicle: carboxymethylcellulose (CMC) 102 % of control

N#Cc1ccccc1NN=NCc1ccccc1
inactive: endpoint: mean survival time, dose: 100.0 mg/kg/injection, schedule: Q01DX001 (ip), vehicle: saline with Tween-80 97 % of control | endpoint: mean survival time, dose: 400.0 mg/kg/injection, schedule: Q01DX001 (ip), vehicle: saline with Tween-80 90 % of control

O=C(/C(=C/c1ccccc1)CN1CCOCC1)c1ccccc1
inactive: [1] 101 % of control | [2] 105 % of control | [3] 91 % of control

CC12CCC(/C(=C/NNc3ccc([N+](=O)[O-])cc3[N+](=O)[O-])C1=O)C2(C)C (stereo not given)
inactive: [4] 93 % of control | [5] 90 % of control | [6] 96 % of control

c1ccc(C2CC([P+](c3ccccc3)(c3ccccc3)c3ccccc3)=NN2)cc1 (stereo not given)
inactive: endpoint: mean survival time, dose: 2.7 mg/kg/injection, schedule: Q01DX009 (ip), vehicle: Klucel (hydroxypropylcellulose) (HPC) 110 % of control | endpoint: mean survival time, dose: 4.1 mg/kg/injection, schedule: Q01DX009 (ip), vehicle: Klucel (hydroxypropylcellulose) (HPC) 112 % of control | endpoint: mean survival time, dose: 5.5 mg/kg/injection, schedule: Q04DX003 (ip), vehicle: Klucel (hydroxypropylcellulose) (HPC) 106 % of control | endpoint: mean survival time, dose: 6.25 mg/kg/injection, schedule: Q01DX009 (ip), vehicle: Klucel (hydroxypropylcellulose) (HPC) 108 % of control | endpoint: mean survival time, dose: 8.2 mg/kg/injection, schedule: Q04DX003 (ip), vehicle: Klucel (hydroxypropylcellulose) (HPC) 106 % of control | endpoint: mean survival time, dose: 9.3 mg/kg/injection, schedule: Q01DX009 (ip), vehicle: Klucel (hydroxypropylcellulose) (HPC) 110 % of control | endpoint: mean survival time, dose: 11.0 mg/kg/injection, schedule: Q04DX002 (ip), vehicle: Klucel (hydroxypropylcellulose) (HPC) 102 % of control | endpoint: mean survival time, dose: 12.5 mg/kg/injection, schedule: Q04DX003 (ip), vehicle: Klucel (hydroxypropylcellulose) (HPC) 104 % of control | endpoint: mean survival time, dose: 14.0 mg/kg/injection, schedule: Q01DX009 (ip), vehicle: Klucel (hydroxypropylcellulose) (HPC) 102 % of control | endpoint: mean survival time, dose: 16.0 mg/kg/injection, schedule: Q04DX002 (ip), vehicle: Klucel (hydroxypropylcellulose) (HPC) 95 % of control | endpoint: mean survival time, dose: 18.0 mg/kg/injection, schedule: Q04DX003 (ip), vehicle: Klucel (hydroxypropylcellulose) (HPC) 108 % of control | endpoint: mean survival time, dose: 22.0 mg/kg/injection, schedule: Q01DX001 (ip), vehicle: Klucel (hydroxypropylcellulose) (HPC) 104 % of control | endpoint: mean survival time, dose: 25.0 mg/kg/injection, schedule: Q04DX002 (ip), vehicle: Klucel (hydroxypropylcellulose) (HPC) 102 % of control | endpoint: mean survival time, dose: 28.0 mg/kg/injection, schedule: Q04DX003 (ip), vehicle: Klucel (hydroxypropylcellulose) (HPC) 108 % of control | endpoint: mean survival time, dose: 35.0 mg/kg/injection, schedule: Q01DX001 (ip), vehicle: Klucel (hydroxypropylcellulose) (HPC) 110 % of control | endpoint: mean survival time, dose: 35.0 mg/kg/injection, schedule: Q04DX002 (ip), vehicle: Klucel (hydroxypropylcellulose) (HPC) 96 % of control | endpoint: mean survival time, dose: 55.0 mg/kg/injection, schedule: Q04DX002 (ip), vehicle: Klucel (hydroxypropylcellulose) (HPC) 104 % of control

Cn1c(=S)sc2nc3ccccc3n2c1=S
inactive: endpoint: median survival time, dose: 15.0 mg/kg/injection, schedule: Q01DX005 (ip), vehicle: saline with Tween-80 103 % of control | endpoint: median survival time, dose: 30.0 mg/kg/injection, schedule: Q01DX005 (ip), vehicle: saline with Tween-80 107 % of control | endpoint: median survival time, dose: 60.0 mg/kg/injection, schedule: Q01DX005 (ip), vehicle: saline with Tween-80 111 % of control | endpoint: median survival time, dose: 120.0 mg/kg/injection, schedule: Q01DX005 (ip), vehicle: saline with Tween-80 107 % of control | endpoint: median survival time, dose: 240.0 mg/kg/injection, schedule: Q01DX005 (ip), vehicle: saline with Tween-80 107 % of control

Cc1ccc(C(=O)C[n+]2cccc3ccccc32)c(C)c1
inactive: endpoint: mean survival time, dose: 6.25 mg/kg/injection, schedule: Q01DX009 (ip), vehicle: saline with Tween-80 101 % of control | endpoint: mean survival time, dose: 12.5 mg/kg/injection, schedule: Q01DX009 (ip), vehicle: saline with Tween-80 94 % of control | endpoint: mean survival time, dose: 25.0 mg/kg/injection, schedule: Q01DX009 (ip), vehicle: saline with Tween-80 95 % of control

O=[N+]([O-])c1ccc(C2C3C(c4ccccc4)=NCCCN32)cc1 (stereo not given)
inactive: [4] 104 % of control | [5] 97 % of control | [6] 97 % of control

Cc1cccc(Cl)c1NC(=O)/C=C/c1ccccc1
inactive: [7] 87 % of control | [8] 94 % of control | [9] 105 % of control

Cc1cn(C2CC(O)C(CO)O2)c(=O)nc1N1CCSCC1 (stereo not given)
inactive: endpoint: median survival time, dose: 12.5 mg/kg/injection, schedule: Q01DX005 (ip), vehicle: distilled water + Tween-80 101 % of control | endpoint: median survival time, dose: 25.0 mg/kg/injection, schedule: Q01DX005 (ip), vehicle: distilled water + Tween-80 103 % of control | endpoint: median survival time, dose: 50.0 mg/kg/injection, schedule: Q01DX005 (ip), vehicle: distilled water + Tween-80 102 % of control | endpoint: median survival time, dose: 100.0 mg/kg/injection, schedule: Q01DX005 (ip), vehicle: distilled water + Tween-80 101 % of control | endpoint: median survival time, dose: 200.0 mg/kg/injection, schedule: Q01DX005 (ip), vehicle: distilled water + Tween-80 102 % of control

Cc1ccc(C2(SCC(N)C(=O)O)c3ccccc3-c3ccccc32)cc1 (stereo not given)
inactive: endpoint: mean survival time, dose: 25.0 mg/kg/injection, schedule: Q01DX009 (ip), vehicle: saline 95 % of control | [10] 95 % of control | [11] 97 % of control | endpoint: mean survival time, dose: 200.0 mg/kg/injection, schedule: Q01DX009 (ip), vehicle: saline 107 % of control

O=C1C=CC(=NS(=O)(=O)c2ccccc2)C=C1
inactive: endpoint: mean survival time, dose: 25.0 mg/kg/injection, schedule: Q01DX001 (ip), vehicle: other 93 % of control | endpoint: mean survival time, dose: 50.0 mg/kg/injection, schedule: Q01DX001 (ip), vehicle: other 95 % of control | endpoint: mean survival time, dose: 100.0 mg/kg/injection, schedule: Q01DX001 (ip), vehicle: other 104 % of control

N=C(N)SSC(=N)N
inactive: [10] 96 % of control | [11] 100 % of control

CCCCCCCCS
inactive: [12] 100 % of control | [13] 91 % of control | [14] 92 % of control

O=S(=O)(O)C1CCC(O)C2[N-]CCCC21.O=S(=O)(O)C1CCC(O)C2[N-]CCCC21.[Zn+2] (stereo not given)
inactive: [12] 95 % of control | [4] 96 % of control | [5] 93 % of control | [14] 86 % of control | [6] 96 % of control

O=Cc1cc(Cl)c(O)c(Cl)c1
inactive: endpoint: mean survival time, dose: 100.0 mg/kg/injection, schedule: Q04DX003 (ip), vehicle: Klucel (hydroxypropylcellulose) (HPC) 94 % of control | endpoint: mean survival time, dose: 200.0 mg/kg/injection, schedule: Q04DX003 (ip), vehicle: Klucel (hydroxypropylcellulose) (HPC) 100 % of control

COc1ccccc1OC(=O)Nc1ccccc1F
inactive: [4] 101 % of control | [5] 97 % of control | [6] 101 % of control

NC(=O)COc1ccc(F)cc1
inactive: [7] 97 % of control | [8] 90 % of control | [9] 101 % of control

Cc1cc(-n2cccc2)no1
inactive: [12] 98 % of control | [13] 107 % of control | [14] 94 % of control

CC(C)=NNS(=O)(=O)c1ccc(C)cc1
inactive: [1] 102 % of control | [2] 96 % of control | [3] 93 % of control | endpoint: mean survival time, dose: 200.0 mg/kg/injection, schedule: Q01DX009 (ip), vehicle: Klucel (hydroxypropylcellulose) (HPC) 86 % of control | endpoint: mean survival time, dose: 400.0 mg/kg/injection, schedule: Q01DX009 (ip), vehicle: Klucel (hydroxypropylcellulose) (HPC) 91 % of control

C[n+]1ccn(C(CC(=O)O)C(=O)O)c1 (stereo not given)
inactive: endpoint: mean survival time, dose: 100.0 mg/kg/injection, schedule: Q04DX003 (ip), vehicle: saline 101 % of control | endpoint: mean survival time, dose: 200.0 mg/kg/injection, schedule: Q04DX003 (ip), vehicle: saline 103 % of control | endpoint: mean survival time, dose: 400.0 mg/kg/injection, schedule: Q04DX003 (ip), vehicle: saline 106 % of control

COc1ccc(COC(=O)Nc2ccc(Cl)cc2)cc1OC
inactive: [7] 96 % of control | [8] 100 % of control | [9] 112 % of control

CSc1nc(NC2OC(CO)C(O)C(O)C2O)cc(=O)n1C (stereo not given)
inactive: endpoint: median survival time, dose: 12.5 mg/kg/injection, schedule: Q01DX005 (ip), vehicle: saline 102 % of control | endpoint: median survival time, dose: 25.0 mg/kg/injection, schedule: Q01DX005 (ip), vehicle: saline 100 % of control | endpoint: median survival time, dose: 50.0 mg/kg/injection, schedule: Q01DX005 (ip), vehicle: saline 102 % of control | endpoint: median survival time, dose: 100.0 mg/kg/injection, schedule: Q01DX005 (ip), vehicle: saline 102 % of control | endpoint: median survival time, dose: 200.0 mg/kg/injection, schedule: Q01DX005 (ip), vehicle: saline 100 % of control
